Source: US20240382452A1, “COMPOSITIONS AND DOSAGE FORMS FOR TOPICAL AND TRANSDERMAL DELIVERY OF ACTIVES AND METHODS OF USE” (priority 2021, published 2024)
Values joined by “and” are separate entries in the source; they are usually repeats but may differ in a detail not shown here. Identical values can stand only once.

Tests used:
[1] = test system: Oxyuranus scutellatus venom; assay: Snake venom study, Oxyuranus scutellatus severe neurotoxicity, topical treatment; type: in vivo; details: individual mice #1-#4; in 80% DMSO/20% ethanol in <50% 2.5%/2.5% lidocaine/prilocaine cream +/- petrolatum cover
Source text: Additional studies used historical controls from earlier studies with venom doses from same lots:
Oxyuranus scutellatus severe neurotoxicity and 3-(5′-benzyl-2′-carbamoyl-[1,1′-biphenyl]-3-yl)-2-methylpropanoic acid as the racemic mixture in 80% DMSO/20% ethanol in <50% 2.5%/2.5% lidocaine/prilocaine cream+/−petrolatum cover (1 each).

[2] = Varespladib DMSO/ethanol pad applied to simulated viper bite on the inventor's calf; type: in vivo, human; details: 75 mg/mL in DMSO/ethanol, 2 mL on absorbent pad containing 4% lidocaine; patch applied 24 hours
Protocol: The free-acid of varespladib […] was dissolved at 100 mg/mL in DMSO, then diluted with ethanol to 75 mg/mL and 2 mL applied to an absorbent pad containing 4% lidocaine and applied to a simulated viper bite on the inventor's calf applied by penetration to 1 cm with 18 g hypodermic needles similar in depth to what would be experienced with a large viper's bite.

## CC(Cc1cccc(-c2cc(Cc3ccccc3)ccc2C(N)=O)c1)C(=O)O (racemic) [3-(5′-benzyl-2′-carbamoyl-[1,1′-biphenyl]-3-yl)-2-methylpropanoic acid]
[1]
  Cessation of breathing: 64 min and 44 min and 104 min and 111 min

## CCc1c(C(=O)C(N)=O)c2c(OCC(=O)O)cccc2n1Cc1ccccc1 [varespladib]
[2]
  pain, discomfort or redness at wounded area: no pain, discomfort or redness
